Source: PubChem BioAssay AID248 (DTP/NCI, 2004)
“And” between values parts separate entries of the source, which are not always exact repeats. Equal values may be shown once. Inconclusive results and toxic doses are left out. Cut-off read from the data, not from the text of the source: active = T/C of 150% or more; inactive = T/C below 125%.

Tested on: L1210 leukemia ip in BDF1 mice, survival T/C
Assay: NCI In Vivo Anticancer Drug Screen. Data for tumor model L1210 Leukemia (intraperitoneal) in B6D2F1 (BDF1) mice
Settings: endpoint: mean survival time, higher = longer survival
In short: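 Transplantable tumor model; survival measured in treated vs vehicle control mice. Value = treated/control.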

[1] = dose: 50.0 mg/kg/injection, schedule: Q04DX003 (ip), vehicle: Klucel (hydroxypropylcellulose) (HPC)
[2] = dose: 100.0 mg/kg/injection, schedule: Q01DX009 (ip), vehicle: Klucel (hydroxypropylcellulose) (HPC)
[3] = dose: 100.0 mg/kg/injection, schedule: Q04DX003 (ip), vehicle: Klucel (hydroxypropylcellulose) (HPC)
[4] = dose: 200.0 mg/kg/injection, schedule: Q01DX009 (ip), vehicle: Klucel (hydroxypropylcellulose) (HPC)
[5] = dose: 200.0 mg/kg/injection, schedule: Q04DX003 (ip), vehicle: Klucel (hydroxypropylcellulose) (HPC)
[6] = dose: 400.0 mg/kg/injection, schedule: Q01DX009 (ip), vehicle: Klucel (hydroxypropylcellulose) (HPC)
[7] = dose: 100.0 mg/kg/injection, schedule: Q04DX003 (ip), vehicle: saline
[8] = dose: 200.0 mg/kg/injection, schedule: Q04DX003 (ip), vehicle: saline
[9] = dose: 50.0 mg/kg/injection, schedule: Q01DX009 (ip), vehicle: Klucel (hydroxypropylcellulose) (HPC)
[10] = dose: 100.0 mg/kg/injection, schedule: Q01DX009 (ip), vehicle: saline
[11] = dose: 200.0 mg/kg/injection, schedule: Q01DX009 (ip), vehicle: saline
[12] = dose: 100.0 mg/kg/injection, schedule: Q01DX001 (ip), vehicle: saline
[13] = dose: 200.0 mg/kg/injection, schedule: Q01DX001 (ip), vehicle: saline
[14] = dose: 400.0 mg/kg/injection, schedule: Q01DX001 (ip), vehicle: saline
[15] = dose: 400.0 mg/kg/injection, schedule: Q04DX003 (ip), vehicle: saline
[16] = dose: 6.25 mg/kg/injection, schedule: Q01DX009 (ip), vehicle: Klucel (hydroxypropylcellulose) (HPC)
[17] = dose: 12.5 mg/kg/injection, schedule: Q01DX009 (ip), vehicle: Klucel (hydroxypropylcellulose) (HPC)
[18] = dose: 100.0 mg/kg/injection, schedule: Q01DX009 (ip), vehicle: saline with Tween-80
[19] = dose: 100.0 mg/kg/injection, schedule: Q04DX003 (ip), vehicle: saline with Tween-80
[20] = dose: 200.0 mg/kg/injection, schedule: Q01DX009 (ip), vehicle: saline with Tween-80
[21] = dose: 200.0 mg/kg/injection, schedule: Q04DX003 (ip), vehicle: saline with Tween-80
[22] = dose: 400.0 mg/kg/injection, schedule: Q01DX009 (ip), vehicle: saline with Tween-80
[23] = dose: 400.0 mg/kg/injection, schedule: Q04DX003 (ip), vehicle: saline with Tween-80
[24] = dose: 25.0 mg/kg/injection, schedule: Q01DX009 (ip), vehicle: Klucel (hydroxypropylcellulose) (HPC)
[25] = dose: 25.0 mg/kg/injection, schedule: Q04DX003 (ip), vehicle: Klucel (hydroxypropylcellulose) (HPC)

Measured: T/C

O=C1c2sccc2-c2cccc3cccc1c23
inactive: [1] 98 % of control | [2] 98 % of control | [3] 96 % of control | [4] 106 % of control | [5] 102 % of control | [6] 103 % of control

Cc1ccc(C(=O)/C(Cl)=N/O)cc1
inactive: dose: 50.0 mg/kg/injection, schedule: Q01DX001 (ip), vehicle: other 96 % of control | dose: 100.0 mg/kg/injection, schedule: Q01DX001 (ip), vehicle: other 104 % of control

CC(=O)C1=C(O)C2C3c4c[nH]c5cccc(c45)CC3C(C)(C)N2C1=O (stereo unspecified)
inactive: dose: 0.25 mg/kg/injection, schedule: Q01DX001 (ip), vehicle: saline 101 % of control | dose: 0.5 mg/kg/injection, schedule: Q01DX001 (ip), vehicle: saline 103 % of control | dose: 1.0 mg/kg/injection, schedule: Q01DX001 (ip), vehicle: saline 101 % of control | dose: 2.0 mg/kg/injection, schedule: Q01DX001 (ip), vehicle: saline 105 % of control

NS(=O)(=O)c1ccc(N=NN2CCOCC2)cc1
inactive: dose: 100.0 mg/kg/injection, schedule: Q04DX002 (ip), vehicle: saline with Tween-80 115 % of control | dose: 200.0 mg/kg/injection, schedule: Q04DX002 (ip), vehicle: saline with Tween-80 108 % of control | dose: 400.0 mg/kg/injection, schedule: Q04DX002 (ip), vehicle: saline with Tween-80 115 % of control

Cc1ccccc1N=Nc1c(O)n(-c2ccc(Br)cc2)c(=S)n(-c2ccccc2)c1=O
inactive: dose: 37.5 mg/kg/injection, schedule: Q01DX001 (ip), vehicle: Klucel (hydroxypropylcellulose) (HPC) 101 % of control | dose: 75.0 mg/kg/injection, schedule: Q01DX001 (ip), vehicle: Klucel (hydroxypropylcellulose) (HPC) 101 % of control | dose: 150.0 mg/kg/injection, schedule: Q01DX001 (ip), vehicle: Klucel (hydroxypropylcellulose) (HPC) 101 % of control

CCN(CC)CCn1ncc2c1C1(C)CCC2C1(C)C (stereo unspecified)
inactive: dose: 25.0 mg/kg/injection, schedule: Q01DX009 (ip), vehicle: saline + alcohol 100 % of control | dose: 50.0 mg/kg/injection, schedule: Q01DX009 (ip), vehicle: saline + alcohol 104 % of control | dose: 100.0 mg/kg/injection, schedule: Q01DX009 (ip), vehicle: saline + alcohol 102 % of control | [7] 101 % of control | [8] 102 % of control

CCCCCCCCCCCC(=O)Nc1cc(C)ccc1N=Nc1ccc(C)cc1
inactive: [9] 86 % of control | [2] 95 % of control | [4] 88 % of control | [6] 90 % of control

NCCc1cnc[nH]1
inactive: dose: 50.0 mg/kg/injection, schedule: Q01DX009 (ip), vehicle: saline 89 % of control | [10] 106 % of control | [11] 89 % of control

Cc1ccc(S(=O)(=O)Nc2ccc(Br)cc2)cc1
inactive: dose: 100.0 mg/kg/injection, schedule: Q01DX001 (ip), vehicle: carboxymethylcellulose (CMC) 105 % of control | dose: 200.0 mg/kg/injection, schedule: Q01DX001 (ip), vehicle: carboxymethylcellulose (CMC) 105 % of control | dose: 400.0 mg/kg/injection, schedule: Q01DX001 (ip), vehicle: carboxymethylcellulose (CMC) 107 % of control

O=C(Nc1nn[nH]n1)C(F)(F)F
inactive: [12] 108 % of control | [13] 103 % of control | [14] 105 % of control

CCCCOC(OCCCC)C(C)(C)CN(C)C
inactive: dose: 12.5 mg/kg/injection, schedule: Q04DX002 (ip), vehicle: saline 117 % of control | dose: 25.0 mg/kg/injection, schedule: Q04DX002 (ip), vehicle: saline 105 % of control | dose: 50.0 mg/kg/injection, schedule: Q04DX002 (ip), vehicle: saline 98 % of control

CC(=O)[C@@]1(O)CC[C@H]2[C@@H]3C[C@H](C)C4=CC(=O)CC[C@]4(C)[C@H]3[C@@H](O)C[C@@]21C
inactive: dose: 12.5 mg/kg/injection, schedule: Q04DX002 (ip), vehicle: Klucel (hydroxypropylcellulose) (HPC) 102 % of control | dose: 25.0 mg/kg/injection, schedule: Q04DX002 (ip), vehicle: Klucel (hydroxypropylcellulose) (HPC) 105 % of control | dose: 50.0 mg/kg/injection, schedule: Q04DX002 (ip), vehicle: Klucel (hydroxypropylcellulose) (HPC) 112 % of control | [12] 104 % of control | dose: 100.0 mg/kg/injection, schedule: Q01DX009 (ip), vehicle: acetone 97 % of control | [7] 104 % of control | [13] 100 % of control | dose: 200.0 mg/kg/injection, schedule: Q01DX009 (ip), vehicle: acetone 92 % of control | [8] 102 % of control | [14] 91 % of control | dose: 400.0 mg/kg/injection, schedule: Q01DX009 (ip), vehicle: acetone 97 % of control | [15] 95 % of control

CC(O)C(F)(F)C(F)(F)C(F)(F)C(C)O (stereo unspecified)
inactive: [10] 97 % of control | [7] 102 % of control | [11] 104 % of control | [8] 96 % of control | dose: 400.0 mg/kg/injection, schedule: Q01DX009 (ip), vehicle: saline 109 % of control | [15] 96 % of control

CC(=O)Nc1ccccc1C(=NC1CCCC1)C(=O)NC1CCCC1
inactive: dose: 3.12 mg/kg/injection, schedule: Q01DX009 (ip), vehicle: Klucel (hydroxypropylcellulose) (HPC) 97 % of control | [16] 94 % of control | [17] 89 % of control | [6] 95 % of control

CC(=O)Nc1ccc(C(=O)O)cc1O
inactive: [7] 92 % of control | [8] 92 % of control | [15] 95 % of control

COC1CC(N=[N+]=[N-])C(O)C(C)O1 (stereo unspecified)
inactive: [18] 109 % of control and 105 % of control | [19] 97 % of control and 96 % of control | [20] 107 % of control and 89 % of control | [21] 103 % of control and 97 % of control | [22] 104 % of control and 100 % of control | [23] 108 % of control and 103 % of control

Cc1ccc(CNc2ccc(F)cc2)cc1
inactive: [18] 94 % of control | [19] 92 % of control | [20] 100 % of control | [21] 102 % of control | [22] 97 % of control | [23] 113 % of control

NC(=O)Nc1nc(-c2ccccc2)no1
inactive: [2] 103 % of control | [3] 97 % of control | [4] 93 % of control | [5] 105 % of control | [6] 95 % of control | dose: 400.0 mg/kg/injection, schedule: Q04DX003 (ip), vehicle: Klucel (hydroxypropylcellulose) (HPC) 89 % of control

COC1OC(CBr)C(OC(C)=O)C(OC(C)=O)C1OS(C)(=O)=O (stereo unspecified)
inactive: dose: 100.0 mg/kg/injection, schedule: Q04DX002 (ip), vehicle: Klucel (hydroxypropylcellulose) (HPC) 100 % of control | dose: 200.0 mg/kg/injection, schedule: Q04DX002 (ip), vehicle: Klucel (hydroxypropylcellulose) (HPC) 97 % of control | dose: 400.0 mg/kg/injection, schedule: Q04DX002 (ip), vehicle: Klucel (hydroxypropylcellulose) (HPC) 103 % of control

CN(C)/N=[N+](\[O-])c1ccccc1
inactive: [16] 103 % of control | [17] 100 % of control and 105 % of control | [24] 97 % of control and 104 % of control | [25] 96 % of control | [9] 100 % of control and 105 % of control | [1] 95 % of control and 108 % of control | [3] 95 % of control and 105 % of control

Cc1ccc(S(=O)(=O)N(Cl)Cl)cc1
inactive: [16] 115 % of control | dose: 6.25 mg/kg/injection, schedule: Q04DX003 (ip), vehicle: Klucel (hydroxypropylcellulose) (HPC) 94 % of control | dose: 12.5 mg/kg/injection, schedule: Q04DX003 (ip), vehicle: Klucel (hydroxypropylcellulose) (HPC) 98 % of control | [24] 94 % of control | [25] 102 % of control | [12] 110 % of control | [13] 101 % of control | [14] 108 % of control

NNc1nnnc2ccccc12
inactive: dose: 20.0 mg/kg/injection, schedule: Q01DX001 (ip), vehicle: Klucel (hydroxypropylcellulose) (HPC) 108 % of control
